{"source": "patent US20230251260A1", "about": "“METHODS OF DETERMINING CANCER THERAPY” (YISSUM RESEARCH DEVELOPMENT COMPANY OF THE HEBREW …, priority 2020, published 2023)", "key": {"BR45 PDX": {"tested_on": "BR45 PDX", "test": "BR45 PDX in NSG mice treated by brachytherapy, tumor growth", "type": "in vivo, mouse", "conditions": "pretreatment prior to brachytherapy RT (12 Gy and 10 Gy)", "source_text": "Mouse models: Syngeneic mouse model: 2.0×10^5 4T1 cells were inoculated subcutaneously on 6-7 weeks old female Balb/c mice. Allogeneic model: BR45 tumors were induced on NSG mice either by injecting 4.0×10^6 cells […] or subcutaneously transplanting xenografts. After reached the desired tumor volume (80-100 mm3), mice were randomly grouped to around 8-10 per cage and treatment were initialized. Tumor sizes were regularly measured with an electronic calliper every two days and their volumes were obtained using the formula V=(W (2)×L)/2. Mice were kept under conventional pathogen-free conditions. All in-vivo experiments were performed with approval of the Hebrew University of Jerusalem IACUC.\nTumor inoculation: 4T1 mouse breast carcinoma mimics stage IV triple negative breast cancer in human. It is highly metastatic to lungs, lymph nodes, liver and bones after implantation in the mammary fat pad of immune-competent Balb/c mice. Primary tumors were harvested after euthanizing female mice using carbon dioxide (CO2) inhalation. Time elapsed from tumor inoculation varied from 2 weeks to 1 month. […]\nDrugs were given usually by IP or gavage depending on the drug. […] During this period the tumor volumes were measured regularly to observe the action of the drug. […]"}, "4T1 cells": {"tested_on": "4T1 cells", "test": "Survival assay (methylene blue) of irradiated 4T1 cells", "type": "cell-based, mouse", "conditions": "drugs with RT, beginning 2 days prior to RT until 6 days post-RT", "procedure": "Survival Analysis: Cells were seeded at 70% confluency and treated as needed for different timepoints. Cells were washed with PBS and fixed with 4% PFA for 10 min. at R.T. The fixed cells were stained with Methylene Blue (MB) for 1 hour at R.T., washed and air dried overnight. The color was extracted with 0.1M HCl for 1 hour at R.T. Absorbance was read at 630 nm."}}, "data": [{"smiles": "C#Cc1cccc(Nc2ncnc3cc(OCCOC)c(OCCOC)cc23)c1", "note": "[erlotinib, Erlotinib]", "values": [{"measurement": "tumor growth, response to RT", "setting": "BR45 PDX", "result": "did not improve the results of the treatment"}]}, {"smiles": "C[C@@H](Oc1cc(-c2cnn(C3CCNCC3)c2)cnc1N)c1c(Cl)ccc(F)c1Cl", "note": "[Crizotinib]", "values": [{"measurement": "cell survival / sensitization of 4T1 cells to RT", "setting": "4T1 cells", "result": "significantly less effective in sensitizing the cells to RT"}]}]}
